Assay results: patent US9428533B2, “Inhibitors of advanced glycation end products” (NephroGenex, Inc., priority 2006, dated 2016)

Legend:
HepG2 cells = experiment: Cell based toxicity assay (MTT); details: fixed concentration 1 mM
Text: Hepatotoxicity is one of the major causes of drug failure in the clinic. HepG2 cells are human cells derived from a liver tumor, and express many of the proteins and detoxification pathways of normal hepatocytes, and so make a reasonable model for initial cellular toxicity testing of candidate compounds. The test is based on the active conversion of 3-[4,5-dimethylthiazol-2-yl]-2,5-dephenyltetrazolium bromide (MTT) by mitochondrial oxidation-reduction reactions into blue formazan crystals. Decreased crystal formation corresponds to decreased cell viability. Azide and chlorpromazine served as a positive controls
10×MTT stock solution (5 mg/ml MTT in 0.9% NaCl)
0.04 N HCl in isopropanol
Compound stocks: 100 mM in 100% DMSO
MTT working solution: diluting 10×MTT stock into culture medium.
Test article in cell culture medium; Final DMSO concentration on the cells varies with the compound concentration (Final concentration of solvents such as DMSO should be kept at or below 1%)
• 1. Aspirate culture medium from HepG2 cells. Replace culture medium with test article dissolved in culture medium. • 2. Incubate in 37° C., 5% CO2 incubator for 16-24 hours. • 3. Aspirate the medium from the cells; replace with an equal volume of 37° C. MTT working solution. • 4. Incubate for 3 hours. • 5. Replace MTT solution with an equal volume of acidified isopropanol. • 6. […] Read the absorbance of the solution at 570 nm. […]

[1] = system: streptozotocin (STZ)-diabetic rats; experiment: Efficacy study in STZ rat model of diabetic neuropathy (nerve conduction velocity); type: in vivo
Experimental: The STZ rat model has been described previously in WO 2004/019889. Our aim was to ascertain whether BST-605 treatment could correct nerve dysfunction in streptozotocin (STZ)-diabetic rats. Animals were made diabetic for 6 weeks, following which they were treated (n=6) for 2 weeks with BST-605 given in the drinking water at concentrations adjusted to correspond to doses of 0.22, 0.67 and 2.0 mg/kg/day. They were compared to control non-diabetic rats (n=10).
Motor NCV was tested between the sciatic notch and knee for the nerve branch to tibialis anterior muscle, as described in Cameron et al., Q. J. Exp. Physiol. 74:917-926 (1989); and Cameron et al, Exp. Neurol. 92:757-761 (1986).
Saphenous sensory NCV was measured between the groin and ankle.

[2] = In vivo plasma concentration and metabolites (HPLC fluorescence, LC-MS/MS); details: for metabolites in plasma: mice plasma
Experimental: The plasma drawn from the mice in the above MTD study was examined by an HPLC fluorescence method for the presence of parent drug at different times as well as for the possible presence of metabolites. […] An HPLC fluorescence method was developed to assay for parent drugs and possible metabolites of each drug. The HPLC method was further adapted for LC-MS/MS study by changing from phosphoric acid to volatile 20 mM ammonium acetate.
Possible structures for the metabolites include the following: […]

[3] = Redox metal ion binding affinity, visible spectroscopic titration (Fe3+); details: visible spectroscopy, 480 nm (430 nm for pyridoxamine); read-out: Fe^3+ Kd
Text: (§1) The AGE inhibition by these types of compounds is believed to occur when the compounds interfere with the role of the required redox metal ions in the oxidative breakdown of the Amadori intermediates to advanced glycation end products (“glycoxidation”). […] These spectral titrations usually involve adding varying amounts of compound to a fixed amount of metal ion in a suitable buffer having low metal ion affinity under physiological pH conditions. In cases of extreme affinity, binding constants were estimated in a competitive assay mode.
(§2) Binding affinity is measured as the dissociation constants Kd (units of concentration). All measurements were done by visible spectroscopy by monitoring the spectrum of the complex formed by each compound near its wavelength maximum, which depends on the metal ion being studied.

[4] = Redox metal ion binding affinity, visible spectroscopic titration (Cu2+); details: visible spectroscopy, physiological pH; read-out: Cu^2+ Kd
Text: as §1, §2

[5] = Redox metal ion binding affinity, visible spectroscopic titration (Fe2+); details: visible spectroscopy, 480 nm (430 nm for pyridoxamine); read-out: Fe^2+ Kd
Text: as §1, §2

RNase-Amadori = experiment: Post-Amadori AGE/CML ELISA inhibition assay; type: biochemical; details: for IC50: 20 hours at 37° C.
Text: Using a novel modification of the AGE Inhibition assay, we have determined the post-Amadori AGE inhibition potency for compounds of interest. The experiments were designed to determine the half-maximal inhibitory concentration of compounds (“IC50 values”) for inhibiting the conversion of Amadori intermediates to advanced glycation end products. The post Amadori AGE/CML ELISA assay has been developed to a 384 well format for rapidly testing potential inhibitors prepared from DMSO stocks. Assay signal to background ratios are high, at greater than 20:1. Results in this format for AGE inhibitors agree well with previous data, providing some measure of method validation, making the assay is robust and reliable. Compounds for testing were dissolved at 100 mM or their maximum concentration in 100% DMSO. […] A subset of compounds were not fully soluble in DMSO at concentrations as low as 10 mM. […] When necessary, the activity of compounds was subsequently confirmed in a more thorough repeat test against AGE formation from both RNase Amadori and BSA Amadori. Typically, from DMSO stocks, two stock plates were made. Each well contained 50 μL.
The stock plate #2 was then frozen at −20° C. during preparation. Later, stock plate #2 was removed from the freezer and allowed to thaw for 30 minutes. The compounds in the plate were then mixed repeatedly with a pipettor and diluted 5× into 0.01 N HCl in H2O.
Further dilutions were then carried out spanning two orders of magnitude of concentration. After the compounds were diluted, 10 ul of phosphate buffer was added to each well and mixed to neutralize the solution before protein addition. Next 15 μL of 0.333 mg/mL of RNase-Amadori in phosphate buffer was added from a stock of ribose-RNAse prepared at 10.7 mg/mL. These constitute the AGE reaction mixtures. All AGE reactions proceeded for 20 hours at 37° C. Reactions were then diluted 50 fold into coating buffer by 10× then 5× serial dilution. Coating proceeded at 37° C. for two hours. Final protein was 0.1 μg/well in 384 well plates (2 μg/mL). ELISA was carried out similarly to before using the primary antibody BST-3CK at 1:10000 dilution, and the secondary antibody labeled with DELPHIA Europium GAR at 1:4000 dilution.

[6] = Drug exposure in plasma of STZ rats at sacrifice; type: in vivo; details: lowest two doses
Experimental: A determination of drug exposure was also made from plasma collected from STZ rats at sacrifice that were dosed at the lowest two doses. […] The detection of parent drugs and metabolites in the STZ rat, as in the mice plasma, confirms that sufficient exposure to the drug occurred in the studies so as to make the toxicity findings and in vivo efficacy reflective of drug administration.

male mice = details: mouse, in vivo, po
Experimental: A seven day repeat oral gavage study was carried out in male mice in order to detect any obvious signs of clinical toxicity upon administration of BST-605. For comparison, two groups were dosed with BST-4997 and BST-146 (acetyl ester of BST-4997 that is rapidly hydrolyzed to parent BST-4997). Dosing was done daily at 10, 30 and 100 mg/kg/day, and blood draws were taken at the end of study at 1, 2, 4 and 8 h post-dosing.

STZ rats = experiment: Tissue staining for carboxymethyllysine (CML) AGEs in nerve vasculature; type: in vivo; details: compared to diabetic controls
Text: This was done by quantitative measurements of tissue staining for carboxymethyllysine (CML) AGEs, using anti-CML antibodies.

[7] = STZ rats, 2 weeks in drinking water, 0.22, 0.67 and 2.0 mg/kg/day

| SMILES | acute toxicity in HepG2 cell viability (MTT) (HepG2 cells) | diabetic complications in STZ rat model ([1]; STZ rat model) | restoration of nerve conduction velocity in motor (sciatic nerve) neurons [1, 7] | restoration of nerve conduction velocity in sensory (saphenous) neurons [1, 7] | metabolites in plasma [2] | plasma concentration of parent drug versus dose ([2]; mice, plasma 1, 2, 4 and 8 h post-dosing, 10, 30 and 100 mg/kg/day) | Kd [3] [µM] | Kd [4] [µM] | Kd [5] [µM] | Potency Relative to BST-4997 (RNase-Amadori) | potency over BST-4997 (RNase-Amadori) [fold] | potency over pyridoxamine (RNase-Amadori) [fold] | IC50 (RNase-Amadori) [µM] | drug exposure in plasma [6] | clinical toxicity in MTD study (male mice) | AGE (CML) staining in the nerve vasculature (STZ rats) |
| --- | --- | --- | --- | --- | --- | --- | --- | --- | --- | --- | --- | --- | --- | --- | --- | --- |
| Cc1ncc(CN2CCN(C)CC2)c(-c2ncc[nH]2)c1O [BST-605] | no acute toxicity | ameliorates diabetic complications | efficacy at very low concentrations | efficacy at very low concentrations | oxidized and/or undergone glucuronidation | proportional to dose | 520 | 0.13 | 720 | 6 | 6 | 50 | 100 | Drug exposure was observed and measured | no adverse clinical signs or gross examination findings |  |
| Cc1ncc(CO)c(-c2ncc[nH]2)c1O [BST-4997, reference compound] | some evidence of toxicity |  |  |  | oxidized and/or undergone glucuronidation |  | 610 | 1.13 | 690 | (1) |  |  | 600 |  | significant toxicity at and above 30 mg/kg/day | significant decrease in AGE staining |
| Cc1ncc(CO)c(CN)c1O [Pyridoxamine, pyridoxamine, reference compound] |  |  |  |  |  |  |  |  |  |  |  |  | 5000 |  |  |  |
